Experimental data published in PMC6273400, “Enhancement of Exposure and Reduction of Elimination for Paeoniflorin or Albiflorin via Co-Administration with Total Peony Glucosides and Hypoxic Pharmacokinetics Comparison” (Molecules, 2016).

How the values were obtained:
[1] = Pharmacokinetics in rat plasma after intragastric administration, hypoxia (9.0% O2); type: in vivo, Sprague-Dawley rats; conditions: mean ± SD; for clearance / Cmax / Tmax / half-life: n = 6; for Cmax / Tmax / half-life / AUC(0-t) / MRT last: male, Sprague-Dawley, po; for AUC(0-t): n = 6, read-out: AUC(0→24 h) (converted); for MRT last: n = 6, read-out: MRT(0→24 h) (converted)
Method: (§1) Male Sprague-Dawley (SD) rats (250 g ± 20 g) were purchased from the Animal Center of Capital Medical University (ACCMU, Beijing, China). Animals were housed in individual cages with free access to food and water in a room with the illumination (a 12 h light and dark cycle), temperature and relative humidity controlled automatically. Within five days before experiments a jugular vein in each rat under anaesthesia was cannulated by insertion of an indwelling cannula for blood sampling. After fully recovery, the rats were housed with unlimited access to food and water except for fasting 12 h before the experiment with water available. The seven groups of PF/AF and TGP were intragastrically administered to the Sprague-Dawley rats, respectively. All the animal experiments were carried out in accordance with the Guide for the Care and Use of Laboratory Animals as adopted and promulgated by the National Health Ministry of China. The protocols of animal experiments had been approved by the Animal Center of Capital Medical University.
(§2) The UPLC-MS/MS system consisted of a UPLC system (Agilent Technologies, Palo Alto, CA, USA) including a G4220A 1290 binary pump, a G1379A vacuum degasser, a G4226 autosampler, a G1330B 1290 thermostat and triple quadrupole mass spectrometer equipped with an electrospray ionization (ESI) source (Series 6490, Agilent Technologies). The system was controlled with the Agilent Technologies Mass Hunter Workstation B.06.00 software for data acquisition and analysis. The analytes were separated on ZORBAX Eclipse plus C18 column (2.1 mm × 100 mm, 3.5 μm). The mobile phase consisted of 0.2% (v/v) formic acid in water (A) and methanol (B). The mobile phase conditions were 79:21 (A:B, v/v) and the flow rate was 0.4 mL/min. The column temperature was maintained at 30 °C. The sample injection volume was 5 μL. The detection was performed on the triple quadrupole mass spectrometer equipped with electrospray source (Series 6490, Agilent Technologies). High purity nitrogen served as both the nebulizing and sheath gas. The optimized parameters in the positive or negative were as follows: capillary voltage at 3 kV, nozzle voltage at 1.5 kV, gas temperature of 200 °C and sheath gas temperature of 250 °C. The quantification was performed by multiple reaction monitoring (MRM) via precursor-to-product ion pair. AF and IS were detected in positive ion mode while PF was detected in negative ion mode. The parameters were set as follows: m/z 525→449 for PF (fragmentor energy, 380 eV; collision energy, 10 eV; dwell time, 80 ms); m/z 481→105 for AF (fragmentor energy, 380 eV; collision energy, 28 eV; dwell time, 80 ms); m/z 417→297 for IS (fragmentor energy, 380 eV; collision energy, 25 eV; dwell time, 80 ms).
(§3) A 100 μL aliquot of plasma sample was added with 50 μL 1% (v/v) formic acid in water and 50 μL IS working solution (the IS, concentration of 100 ng/mL) and 300 μL acetonitrile. After vortexing for 2 min and centrifugation at 13,000× g for 10 min, the sample was transferred to another Axygen tube and evaporated to dryness in a rotary evaporator at 40 °C. The residue was reconstituted in 100 μL of water–methanol (79:21, v/v), then an aliquot of 5 μL was injected into the UPLC-MS/MS system for analysis.
(§4) The male Sprague-Dawley (SD) rats were randomly divided into seven groups (six rats in each group), which were housed with unlimited access to food and water, except for fasting 12 h before the experiment with water ad libitum. The hypoxic rats were exposed to a fractional concentration of 9.0% O2 after intragastric administration of drug for hypoxia pharmacokinetics experiments. The compound PF (80 mg/kg, normoxia and hypoxia), AF (14 mg/kg, normoxia and hypoxia), combination administration of PF (80 mg/kg) and AF (14 mg/kg), the two dosages of TPG (PF with 80 mg/kg, and AF with 14 mg/kg) were intragastrically administered to the rats, respectively. […]

[2] = Pharmacokinetics in rat plasma after intragastric administration, normoxia (UPLC-MS/MS); type: in vivo, Sprague-Dawley rats; conditions: mean ± SD; for clearance / Cmax / Tmax / half-life: n = 6; for Cmax / Tmax / half-life / AUC(0-t) / MRT last: male, Sprague-Dawley, rat, plasma, po; for AUC(0-t): n = 6, read-out: AUC(0→24 h) (converted); for MRT last: n = 6, read-out: MRT(0→24 h) (converted)
Method: as §1, §2, §3, §4

[3] = Stability of the analytes in SD rat plasma (QC samples); type: in vitro ADME; conditions: 24 h after pretreatment, three freeze (−80 °C)/thaw (room temperature) cycles, 30 days at −80 °C
Method: The stabilities of the analytes in the SD rat plasma were investigated using the QC sample solutions stored under different temperature conditions for different periods of time which likely to be encountered during sample storage and the analytical process. The QC samples were tested for post-treatment, three freeze-thaw cycles and long-term stabilities. The post-treatment was evaluated by placing the QC samples in the autosampler for 24 h. And for freeze-thaw cycle stability assessment, the QC samples were repeatedly freezed and thawed for three cycles at −80 °C to 20 °C. The long-term stability was carried out via placing the QC samples at −80 °C for at least 30 days.

[4] = AF 14 mg/kg single intragastric
[5] = 14 mg/kg, AF (14 mg/kg) combined with PF (80 mg/kg), intragastric
[6] = 14 mg/kg, AF alone, 14 mg/kg intragastric, normoxia
[7] = 14 mg/kg, AF in TPG (TPG dose with AF 14 mg/kg), intragastric
[8] = PF 80 mg/kg single intragastric
[9] = 80 mg/kg, PF (80 mg/kg) combined with AF (14 mg/kg), intragastric
[10] = 80 mg/kg, PF alone, 80 mg/kg intragastric, normoxia
[11] = 80 mg/kg, PF in TPG (TPG dose with PF 80 mg/kg), intragastric

CC12CC(O)C3CC1(OC1OC(CO)C(O)C(O)C1O)C3(COC(=O)c1ccccc1)C(=O)O2 (centres unmarked) [AF, albiflorin]
clearance [1, 4]: 1600 ± 700 mL/min/kg
Cmax [1, 4]: 49.1 ± 16.2 ng/mL
Tmax [1, 4]: 0.583 h
half-life [1, 4]: 2.19 ± 0.958 h
AUC(0-t) [1, 4]: 138 ng·h/mL
MRT last [1, 4]: 2.16 h
clearance ([2]; AF (14 mg/kg) combined with PF (80 mg/kg), intragastric): 1800 ± 600 mL/min/kg
clearance ([2]; AF alone, 14 mg/kg intragastric, normoxia): 1700 ± 500 mL/min/kg
clearance ([2]; AF in TPG (TPG dose with AF 14 mg/kg), intragastric): 1200 ± 400 mL/min/kg
Cmax [2, 5]: 42.4 ± 18.7 ng/mL
Tmax [2, 5]: 0.695 h
half-life [2, 5]: 2.17 ± 0.978 h
AUC(0-t) [2, 5]: 129 ng·h/mL
MRT last [2, 5]: 2.97 h
Cmax [2, 6]: 70.3 ± 19.1 ng/mL
Tmax [2, 6]: 0.445 h
half-life [2, 6]: 1.99 ± 0.495 h
AUC(0-t) [2, 6]: 142 ng·h/mL
MRT last [2, 6]: 2.25 h
Cmax [2, 7]: 56.9 ± 12.9 ng/mL
Tmax [2, 7]: 0.528 h
half-life [2, 7]: 3.59 ± 1.53 h
AUC(0-t) [2, 7]: 196 ng·h/mL
MRT last [2, 7]: 3.76 h
stability in rat plasma [3]: stable

C[C@@]12C[C@@]3(O)O[C@@H](O1)[C@]1(COC(=O)c4ccccc4)[C@H]3C[C@@]12O[C@@H]1O[C@H](CO)[C@@H](O)[C@H](O)[C@H]1O [PF, paeoniflorin]
clearance [1, 8]: 3050 ± 540 mL/min/kg
Cmax [1, 8]: 177 ± 55.1 ng/mL
Tmax [1, 8]: 0.847 h
half-life [1, 8]: 1.86 ± 0.475 h
AUC(0-t) [1, 8]: 443 ng·h/mL
MRT last [1, 8]: 2.12 h
clearance ([2]; PF (80 mg/kg) combined with AF (14 mg/kg), intragastric): 1600 ± 400 mL/min/kg
clearance ([2]; PF alone, 80 mg/kg intragastric, normoxia): 2300 ± 400 mL/min/kg
clearance ([2]; PF in TPG (TPG dose with PF 80 mg/kg), intragastric): 1700 ± 600 mL/min/kg
Cmax [2, 9]: 320 ± 121 ng/mL
Tmax [2, 9]: 0.695 h
half-life [2, 9]: 1.63 ± 0.665 h
AUC(0-t) [2, 9]: 865 ng·h/mL
MRT last [2, 9]: 3.33 h
Cmax [2, 10]: 333 ± 63.6 ng/mL
Tmax [2, 10]: 0.583 h
half-life [2, 10]: 1.81 ± 0.63 h
AUC(0-t) [2, 10]: 595 ng·h/mL
MRT last [2, 10]: 1.83 h
Cmax [2, 11]: 291 ± 141 ng/mL
Tmax [2, 11]: 0.388 h
half-life [2, 11]: 3.91 ± 1.6 h
AUC(0-t) [2, 11]: 902 ng·h/mL
MRT last [2, 11]: 4.81 h
stability in rat plasma [3]: stable
